From patent publication US20240299388A1, “ERK1/2 AND SHP2 INHIBITORS COMBINATION THERAPY” (Erasca, Inc., priority 2021, published 2024)

Assays:
[1] = test system: KRAS G12A NSCLC CDX model NCI-H2009; assay: In vivo CDX xenograft efficacy, NCI-H2009; set-up: species or system Balb/c nude mice; settings: oral
Method: (§1) The vehicle/control article, 0.5% Methyl Cellulose & 0.1% Tween 80 or 100 mM acetic acid in deionized water with pH adjustment to 4.8-5.0, was prepared and stored under ambient conditions throughout the study period.
(§2) The test article, compound 1, was freshly prepared in vehicle of 0.5% Methyl Cellulose & 0.1% Tween 80 weekly and stored under ambient conditions. The combination agent, compound 2, was freshly prepared in vehicle of 100 mM acetic buffer weekly and stored under ambient conditions.
(§3) Female Balb/c nude mice were purchased from the Beijing Vital River Laboratory Animal Technology Co., Ltd. Mice were hosted at special pathogen-free (SPF) environment of vivarium facility and acclimated to their new environment for at least 3 days prior to initiation of any experiments. Mice were between 6-8 weeks of age at the time of implantation.
(§4) NCI-H2009 is a human NSCLC cell line that harbored a KRAS^G12A mutation. The NCI-H2009 cell line was purchased from the American Type Culture Collection (ATCC® CRL-5911). NCI-H2009 cells were cultured in medium containing RPMI-1640 plus 10% Fetal Bovine Serum (FBS) and supplemented with Glutamax and pyruvate at 37° C. in an atmosphere of 5% CO2 in air. NCI-H2009 cells in 100 μL cell suspensions containing 5×10^6 cells mixed with 50% Matrigel were implanted into mice subcutaneously. When tumor volumes reached a mean of 200 mm^3, tumor-bearing mice were randomized into different groups with 8 mice in each group and treatment started on the day of randomization.
(§5) Mice were dosed by oral administration of vehicle control solution, compound 1, or compound 2 in monotherapy treatment groups. Mice were dosed by oral administration of combinations, including compound 1 with compound 2. The dosing volume was 5 mL/kg for each compound and interval of BID regimen was 8 hours. In the combination of compound 1 with compound 2, compound 1 was dosed at one-hour post compound 2 QD or first BID dose. […] The study was terminated at the end of 4-week treatment or when tumor volume in vehicle control group reached 2,000 mm^3.

[2] = test system: KRAS G12V NSCLC CDX model NCI-H441; assay: In vivo CDX xenograft efficacy, NCI-H441; set-up: species or system Balb/c nude mice; settings: oral
Method: as §1, §2, §3
as §4, with “NCI-H441” for “NCI-H2009”, “harbors” for “harbored”, “KRAS^G12V” for “KRAS^G12A”, “HTB-174™). NCI-H441” for “CRL-5911). NCI-H2009”, “(FBS),” for “(FBS) and supplemented with Glutamax and pyruvate”, “200” for “100”
as §5

SMILES	TGI ([1]; monotherapy 30 mg/kg BID)	TGI ([2]; monotherapy 30 mg/kg BID)	TGI ([2]; monotherapy 30 mg/kg QD)	TGI ([1]; monotherapy 15 mg/kg QD)	TGI ([1]; monotherapy 30 mg/kg QD)	TGI ([2]; monotherapy 15 mg/kg QD)
Cc1cnc(NC2CCOCC2)nc1-n1cnc(C(=O)N[C@H](CN)c2cc(F)cc(Cl)c2)c1 [Compound 1, (S)—N-(2-amino-1-(3-chloro-5-fluorophenyl)ethyl)-1-(5-methyl-2-((tetrahydro-2H-pyran-4-yl)amino)pyrimidin-4-yl)-1H-imidazole-4-carboxamide]	93%	115%	94%			
COCOC[C@H]1C[C@H]2COc3c(Sc4cnc(N5CCC6(CC5)CO[C@@H](C)[C@H]6N)c(CO)n4)ccnc3N2C1 [Compound 2, (3-((3S,4S)-4-amino-3-methyl-2-oxa-8-azaspiro[4.5]decan-8-yl)-6-(((6aS,8S)-8-((methoxymethoxy)methyl)-6a,7,8,9-tetrahydro-6H-pyrido[3,2-b]pyrrolo[1,2-d][1,4]oxazin-4-yl)thio)pyrazin-2-yl)methanol]			101%	73%	90%	87%
